Laboratory results as given in ChEMBL document CHEMBL1759880, “A facile, one-pot synthesis, characterization and antimicrobial activity of o-hydroxy anilide derivatives and 1-substituted-1,3-dicyclohexylurea analogs of long chain carboxylic acids” (2011).
≈ marks a conversion by molar mass, not a printed value.

Key:
Escherichia coli [1] = experiment: Antibacterial activity against Escherichia coli ATCC 25922 after 24 hrs by broth dilution technique; type: functional; details: ATCC-25922, 24 h
Aspergillus fumigatus [2] = experiment: Antifungal activity against Aspergillus fumigatus after 48 hrs by broth dilution technique; type: functional
Pseudomonas aeruginosa [3] = experiment: Antibacterial activity against Pseudomonas aeruginosa ATCC 27853 after 24 hrs by broth dilution technique; details: ATCC-27853, 24 h
Streptococcus pyogenes [4] = experiment: Antibacterial activity against Streptococcus pyogenes clinical isolate after 24 hrs by broth dilution technique; type: functional
Klebsiella pneumoniae [5] = experiment: Antibacterial activity against Klebsiella pneumoniae clinical isolate after 24 hrs by disc diffusion method; type: functional
[6] = system: Trichophyton mentagrophytes; experiment: Antifungal activity against Trichophyton mentagrophytes after 48 hrs by broth dilution technique; type: functional
Staphylococcus aureus [7] = experiment: Antibacterial activity against Staphylococcus aureus ATCC 25923 after 24 hrs by broth dilution technique; type: functional; details: ATCC-25923, 24 h
Talaromyces marneffei [8] = experiment: Antifungal activity against Penicillium marneffei after 3 to 4 days by disc diffusion method; type: functional
Aspergillus fumigatus [9] = experiment: Antifungal activity against Aspergillus fumigatus after 3 to 4 days by disc diffusion method; type: functional
Candida albicans [10] = experiment: Antifungal activity against Candida albicans after 3 to 4 days by disc diffusion method; type: functional
[11] = system: Trichophyton mentagrophytes; experiment: Antifungal activity against Trichophyton mentagrophytes after 3 to 4 days by disc diffusion method; type: functional
Talaromyces marneffei [12] = experiment: Antifungal activity against Penicillium marneffei after 48 hrs by broth dilution technique; type: functional
Candida albicans [13] = experiment: Antifungal activity against Candida albicans after 48 hrs by broth dilution technique; type: functional
Escherichia coli [14] = experiment: Antibacterial activity against Escherichia coli ATCC 25922 after 24 hrs by disc diffusion method; type: functional
Streptococcus pyogenes [15] = experiment: Antibacterial activity against Streptococcus pyogenes clinical isolate after 24 hrs by disc diffusion method; type: functional
Staphylococcus aureus [16] = experiment: Antibacterial activity against Staphylococcus aureus ATCC 25923 after 24 hrs by disc diffusion method; type: functional
Pseudomonas aeruginosa [17] = experiment: Antibacterial activity against Pseudomonas aeruginosa ATCC 27853 after 24 hrs by disc diffusion method
Klebsiella pneumoniae [18] = experiment: Antibacterial activity against Klebsiella pneumoniae clinical isolate after 24 hrs by broth dilution technique; type: functional

SMILES	MBC (Escherichia coli [1]) [µg/mL]	MIC (Escherichia coli [1]) [µg/mL]	MFC (Aspergillus fumigatus [2]) [µg/mL]	MIC (Aspergillus fumigatus [2]) [µg/mL]	MBC (Pseudomonas aeruginosa [3]) [µg/mL]	MIC (Pseudomonas aeruginosa [3]) [µg/mL]	MBC (Streptococcus pyogenes [4]) [µg/mL]	MIC (Streptococcus pyogenes [4]) [µg/mL]	diameter of the inhibition zone (DIZ) (Klebsiella pneumoniae [5]) [mm]	MFC [6] [µg/mL]	MIC [6] [µg/mL]	MBC (Staphylococcus aureus [7]) [µg/mL]	MIC (Staphylococcus aureus [7]) [µg/mL]	diameter of the inhibition zone (DIZ) (Talaromyces marneffei [8]) [mm]	diameter of the inhibition zone (DIZ) (Aspergillus fumigatus [9]) [mm]	diameter of the inhibition zone (DIZ) (Candida albicans [10]) [mm]	diameter of the inhibition zone (DIZ) [11] [mm]	MFC (Talaromyces marneffei [12]) [µg/mL]	MIC (Talaromyces marneffei [12]) [µg/mL]	MFC (Candida albicans [13]) [µg/mL]	other results
CCCCCCCCCCCCCCCCCC(=O)N(C(=O)NC1CCCCC1)C1CCCCC1	100 (≈ 204 µM)	50 (≈ 102 µM)	100 (≈ 204 µM)	50 (≈ 102 µM)	100 (≈ 204 µM)	25 (≈ 50.9 µM)	100 (≈ 204 µM)	50 (≈ 102 µM)	12.7	100 (≈ 204 µM)	50 (≈ 102 µM)	100 (≈ 204 µM)	50 (≈ 102 µM)	10.5	13.6	15.1	12.2	100 (≈ 204 µM)	50 (≈ 102 µM)	50 (≈ 102 µM)	MIC (Candida albicans [13]): 25 µg/mL (≈ 50.9 µM); diameter of the inhibition zone (DIZ) (Escherichia coli [14]): 13.3 mm; diameter of the inhibition zone (DIZ) (Streptococcus pyogenes [15]): 11.5 mm; diameter of the inhibition zone (DIZ) (Staphylococcus aureus [16]): 11.3 mm; diameter of the inhibition zone (DIZ) (Pseudomonas aeruginosa [17]): 12.2 mm; MBC (Klebsiella pneumoniae [18]): 100 µg/mL (≈ 204 µM); MIC (Klebsiella pneumoniae [18]): 100 µg/mL (≈ 204 µM)
CCCCC/C=C\CC[C@H](O)CCCCCCCC(=O)Nc1ccccc1O	50 (≈ 128 µM)	25 (≈ 64.2 µM)	50 (≈ 128 µM)	25 (≈ 64.2 µM)	25 (≈ 64.2 µM)	25 (≈ 64.2 µM)	100 (≈ 257 µM)	50 (≈ 128 µM)	17.8	50 (≈ 128 µM)	25 (≈ 64.2 µM)	50 (≈ 128 µM)	25 (≈ 64.2 µM)	10.7	18.3	21.4	15.2	100 (≈ 257 µM)	25 (≈ 64.2 µM)	25 (≈ 64.2 µM)	MIC (Candida albicans [13]): 12.5 µg/mL (≈ 32.1 µM); diameter of the inhibition zone (DIZ) (Escherichia coli [14]): 20.9 mm; diameter of the inhibition zone (DIZ) (Streptococcus pyogenes [15]): 19.2 mm; diameter of the inhibition zone (DIZ) (Staphylococcus aureus [16]): 18.7 mm; diameter of the inhibition zone (DIZ) (Pseudomonas aeruginosa [17]): 23.4 mm; MBC (Klebsiella pneumoniae [18]): 50 µg/mL (≈ 128 µM); MIC (Klebsiella pneumoniae [18]): 25 µg/mL (≈ 64.2 µM)
CCCCCCCCCCCCCCCC(=O)Nc1ccccc1O	100 (≈ 288 µM)	100 (≈ 288 µM)	100 (≈ 288 µM)	50 (≈ 144 µM)	100 (≈ 288 µM)	100 (≈ 288 µM)	100 (≈ 288 µM)	50 (≈ 144 µM)	10.5	100 (≈ 288 µM)	25 (≈ 71.9 µM)	100 (≈ 288 µM)	50 (≈ 144 µM)	9.3	11.6	13.7	9.8	100 (≈ 288 µM)	50 (≈ 144 µM)	100 (≈ 288 µM)	MIC (Candida albicans [13]): 50 µg/mL (≈ 144 µM); diameter of the inhibition zone (DIZ) (Escherichia coli [14]): 11.8 mm; diameter of the inhibition zone (DIZ) (Streptococcus pyogenes [15]): 10.6 mm; diameter of the inhibition zone (DIZ) (Staphylococcus aureus [16]): 9.8 mm; diameter of the inhibition zone (DIZ) (Pseudomonas aeruginosa [17]): 11.5 mm; MBC (Klebsiella pneumoniae [18]): 100 µg/mL (≈ 288 µM); MIC (Klebsiella pneumoniae [18]): 50 µg/mL (≈ 144 µM)
CCCCCCCCCCCCCCCCCC(=O)Nc1ccccc1O	100 (≈ 266 µM)	100 (≈ 266 µM)	50 (≈ 133 µM)	25 (≈ 66.6 µM)	100 (≈ 266 µM)	100 (≈ 266 µM)	100 (≈ 266 µM)	50 (≈ 133 µM)	11.4	100 (≈ 266 µM)	50 (≈ 133 µM)	100 (≈ 266 µM)	100 (≈ 266 µM)	10.2	12.4	14.7	10.5	100 (≈ 266 µM)	50 (≈ 133 µM)	25 (≈ 66.6 µM)	MIC (Candida albicans [13]): 12.5 µg/mL (≈ 33.3 µM); diameter of the inhibition zone (DIZ) (Escherichia coli [14]): 12.4 mm; diameter of the inhibition zone (DIZ) (Streptococcus pyogenes [15]): 10.8 mm; diameter of the inhibition zone (DIZ) (Staphylococcus aureus [16]): 10.5 mm; diameter of the inhibition zone (DIZ) (Pseudomonas aeruginosa [17]): 11.9 mm; MBC (Klebsiella pneumoniae [18]): 100 µg/mL (≈ 266 µM); MIC (Klebsiella pneumoniae [18]): 50 µg/mL (≈ 133 µM)
